Assay results published in patent publication US6737383B1, “Herbicidal oxadiazolidines” (priority 1999, dated 2004).

How the values were obtained:
jointed goatgrass [1] = test: Test E jointed goatgrass; type: in vivo, Aegilops cylindrica; conditions: Postemergence
Procedure: (§1) Compounds evaluated in this test were formulated in a non-phytotoxic solvent mixture which included a surfactant and applied to plants that were in the 1- to 4-leaf stage (postemergence application). A mixture of sandy loam soil and greenhouse potting mix in a 60:40 ratio was used for the postemergence test.
(§2) Plantings of these crops and weed species were adjusted to produce plants of appropriate size for the postemergence test. All plant species were grown using normal greenhouse practices. Crop and weed species include annual bluegrass (Poa annua), blackgrass (Alopecurus myosuroides), black nightshade (Solanum nigra), chickweed (Stellaria media), common poppy (Papaver rhoeas), deadnettle (Lamium amplexicaule), downy brome (Bromus tectorum), field violet (Viola arvensis), galium (Galium aparine), green foxtail (Setaria viridis), Italian ryegrass (Lolium multiflorum), jointed goatgrass (Aegilops cylindrica), kochia (Kochia scoparia), lambsquarters (Chenopodium album), littleseed canarygrass (Phalaris minor), rape (Brassica napus), redroot pigweed (Amaranthus retroflexus), Russian thistle (Salsola kali), scentless chamomile (Matricaria inodora), spring barley (Hordeum vulgare), sugar beet (Beta vulgaris), sunflower (Helianthus annuus), ivyleaf speedwell (Veronica hederaefolia), spring wheat (Triticum aestivum), winter wheat (Triticum aestivum), wild buckwheat (Polygonum convolvulus), wild mustard (Sinapis arvensis), wild oat (Avena fatua), windgrass (Apera spica-venti) and winter barley (Hordeum vulgare).
(§3) Treated plants and untreated controls were maintained in a greenhouse for approximately 21 to 28 days, after which all treated plants were compared to untreated controls and visually evaluated. […] A dash response (-) means no test result.

rape [2] = test: Test E rape; type: in vivo, Brassica napus; conditions: Postemergence
In short: (§4)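 Postemergence: spray at 1–4 leaf stage, soil 60:40 sandy loam:potting mix; solvent + surfactant formulation; greenhouse 21–28 d; visual injury vs untreated controls.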

sugar beet = test: Test E sugar beet; type: in vivo, Beta vulgaris; conditions: Preemergence
black nightshade = test: Test E black nightshade; type: in vivo, Solanum nigra; conditions: Preemergence
redroot pigweed [3] = test: Test E redroot pigweed; type: in vivo, Amaranthus retroflexus; conditions: Preemergence
lambsquarters = test: Test E lambsquarters; type: in vivo, Chenopodium album; conditions: Postemergence
In short: as §4

littleseed canarygrass = test: Test E littleseed canarygrass; type: in vivo, Phalaris minor; conditions: Preemergence
jointed goatgrass [4] = test: Test E jointed goatgrass; type: in vivo, Aegilops cylindrica; conditions: Preemergence
spring barley = test: Test E spring barley; type: in vivo, Hordeum vulgare; conditions: Postemergence
Procedure: as §1, §2, §3

wild buckwheat = test: Test E wild buckwheat; type: in vivo, Polygonum convolvulus; conditions: Preemergence
wild mustard [5] = test: Test E wild mustard; type: in vivo, Sinapis arvensis; conditions: Preemergence
kochia = test: Test E kochia; type: in vivo, Kochia scoparia; conditions: Postemergence
Procedure: as §1, §2, §3

Russian thistle = test: Test E Russian thistle; type: in vivo, Salsola kali; conditions: Preemergence
wild mustard [6] = test: Test E wild mustard; type: in vivo, Sinapis arvensis; conditions: Postemergence
In short: as §4

redroot pigweed [7] = test: Test E redroot pigweed; type: in vivo, Amaranthus retroflexus; conditions: Postemergence
Procedure: as §1, §2, §3

rape [8] = test: Test E rape; type: in vivo, Brassica napus; conditions: Preemergence
sourgrass = test: Test D sourgrass; type: in vivo, Trichachne insularis; conditions: Preemergence, 0 to 100 scale
Text: Seeds, tubers, or plant parts of Alexandergrass (Brachiaria plantaginea), bermuda-grass (Cynodon dactylon), common pursiane (Portulaca oleracea), common ragweed (Ambrosia elatior), common groundsel (Senecio vulgaris), dallisgrass (Paspalum dilatatum), goosegrass (Eleusine indica), guineagrass (Panicum maximum), itchgrass (Rottboellia exaltata), Johnson grass (Sorghum halepense), large crabgrass (Digitaria sanguinalis), pitted morningglory (Ipomoea lacunosa), purple nutsedge (Cyperus rotundus), sandbur (Cenchrus echinatus), sourgrass (Trichachne insularis), Spanishneedles (Bidens bipinnata), surinam grass (Brachiaria decumbens) and tall mallow (Malva sylvestris) were planted into greenhouse pots of flats containing greenhouse planting medium. Plant species were grown in separate pots or individual compartments. Preemergence applications were made within one day of planting the seed or plant part.
Test chemicals were formulated in a non-phytotoxic solvent mixture which included a surfactant and applied preemergence to the surface of the pot containing seeds in a sandy loam soil. Untreated control pots and treated pots were placed in the greenhouse for growth and visually evaluated for injury 14 to 21 days after herbicide application. Plant response ratings, summarized in Table C, are based on a 0 to 100 scale where 0 is no injury and 100 is complete control. A dash (−) response means no test result.

scentless chamomile = test: Test E scentless chamomile; type: in vivo, Matricaria inodora; conditions: Preemergence
[9] = Rate 250 g/ha, 0 to 100 scale (0 no effect, 100 complete control)
[10] = Rate 62 g/ha, 0 to 100 scale, 0 no effect, 100 complete control
[11] = Rate 125 g/ha, 0 to 100 scale (0 no effect, 100 complete control)

## C=CCn1c(=O)on(C(=O)N(c2ccccc2)C(C)C)c1=O [Compound 93]
Jointed goatgrass [1]; Rate 62 g/ha, 0 to 100 scale
  Plant response rating, Jointed goatgra: 0
Jointed goatgrass [1]; Rate 125 g/ha, 0 to 100 scale
  Plant response rating, Jointed goatgra: 0
Jointed goatgrass [1]; [9]
  Plant response rating, Jointed goatgra: 0
Rape [2]; Rate 62 g/ha, 0 to 100 scale
  Plant response rating, Rape: 0
Rape [2]; Rate 125 g/ha, 0 to 100 scale
  Plant response rating, Rape: 0
Rape [2]; [9]
  Plant response rating, Rape: 0
Sugar beet; [10]
  Plant response rating, Sugar beet: 0
Sugar beet; [11]
  Plant response rating, Sugar beet: 10
Sugar beet; Rate 250 g/ha, 0 to 100 scale
  Plant response rating, Sugar beet: 5
Black nightshade; [10]
  Plant response rating, Blk nightshade: 60
Black nightshade; [11]
  Plant response rating, Blk nightshade: 65
Black nightshade; Rate 250 g/ha, 0 to 100 scale
  Plant response rating, Blk nightshade: 80
Redroot pigweed [3]; [10]
  Plant response rating, Redroot pigweed: 100
Redroot pigweed [3]; [11]
  Plant response rating, Redroot pigweed: 100
Redroot pigweed [3]; Rate 250 g/ha, 0 to 100 scale
  Plant response rating, Redroot pigweed: 90
lambsquarters; Rate 62 g/ha, 0 to 100 scale
  Plant response rating, Lambsquarters: 0
lambsquarters; Rate 125 g/ha, 0 to 100 scale
  Plant response rating, Lambsquarters: 0
lambsquarters; [9]
  Plant response rating, Lambsquarters: 0
Littleseed canarygrass; [10]
  Plant response rating, LS canarygrass: 40
Littleseed canarygrass; [11]
  Plant response rating, LS canarygrass: 80
Littleseed canarygrass; Rate 250 g/ha, 0 to 100 scale
  Plant response rating, LS canarygrass: 60
Jointed goatgrass [4]; [10]
  Plant response rating, Jointed goatgra: 15
Jointed goatgrass [4]; [11]
  Plant response rating, Jointed goatgra: 70
Jointed goatgrass [4]; Rate 250 g/ha, 0 to 100 scale
  Plant response rating, Jointed goatgra: 60
Spring barley; Rate 62 g/ha, 0 to 100 scale
  Plant response rating, Spring Barley: 0
Spring barley; Rate 125 g/ha, 0 to 100 scale
  Plant response rating, Spring Barley: 0
Spring barley; [9]
  Plant response rating, Spring Barley: 0
Wild buckwheat; [10]
  Plant response rating, Wild buckwheat: 30
Wild buckwheat; [11]
  Plant response rating, Wild buckwheat: 30
Wild buckwheat; Rate 250 g/ha, 0 to 100 scale
  Plant response rating, Wild buckwheat: 40
Wild mustard [5]; [10]
  Plant response rating, Wild mustard: 30
Wild mustard [5]; [11]
  Plant response rating, Wild mustard: 65
Wild mustard [5]; Rate 250 g/ha, 0 to 100 scale
  Plant response rating, Wild mustard: 80
kochia; Rate 62 g/ha, 0 to 100 scale
  Plant response rating, Kochia: 0
kochia; Rate 125 g/ha, 0 to 100 scale
  Plant response rating, Kochia: 0
kochia; [9]
  Plant response rating, Kochia: 0
Russian thistle; [10]
  Plant response rating, Russian thistle: 0
Russian thistle; [11]
  Plant response rating, Russian thistle: 0
Russian thistle; Rate 250 g/ha, 0 to 100 scale
  Plant response rating, Russian thistle: 0
Wild mustard [6]; Rate 62 g/ha, 0 to 100 scale
  Plant response rating, Wild mustard: 0
Wild mustard [6]; Rate 125 g/ha, 0 to 100 scale
  Plant response rating, Wild mustard: 0
Wild mustard [6]; [9]
  Plant response rating, Wild mustard: 10
Redroot pigweed [7]; Rate 62 g/ha, 0 to 100 scale
  Plant response rating, Redroot pigweed: 0
Redroot pigweed [7]; Rate 125 g/ha, 0 to 100 scale
  Plant response rating, Redroot pigweed: 0
Redroot pigweed [7]; [9]
  Plant response rating, Redroot pigweed: 0
Rape [8]; [10]
  Plant response rating, Rape: 0
Rape [8]; [11]
  Plant response rating, Rape: 0
Rape [8]; Rate 250 g/ha, 0 to 100 scale
  Plant response rating, Rape: 10

## Cc1ccccc1-n1c(=O)on(C(=O)N(c2ccc(F)cc2)C(C)C)c1=O [Compound 4]
sourgrass; Rate 16 g/ha, 0 no injury, 100 complete control
  Plant response rating, Sourgrass: 50
sourgrass; Rate 32 g/ha, 0 no injury, 100 complete control
  Plant response rating, Sourgrass: 65
sourgrass; Rate 64 g/ha, 0 no injury, 100 complete control
  Sourgrass plant response rating: 90
sourgrass; Rate 125 g/ha, 0 no injury, 100 complete control
  Sourgrass plant response rating: 100
sourgrass; Rate 250 g/ha
  Plant response rating, Sourgrass: 100
sourgrass; Rate 500 g/ha
  Plant response rating, Sourgrass: 100

## CCn1c(=O)on(C(=O)N(c2ccc(Cl)cc2)C(C)C)c1=O [Compound 108]
Jointed goatgrass [1]; Rate 62 g/ha, 0 to 100 scale
  Plant response rating, Jointed goatgra: 10
Jointed goatgrass [1]; Rate 125 g/ha, 0 to 100 scale
  Plant response rating, Jointed goatgra: 10
Jointed goatgrass [1]; [9]
  Plant response rating, Jointed goatgra: 10
Rape [2]; Rate 62 g/ha, 0 to 100 scale
  Plant response rating, Rape: 60
Rape [2]; Rate 125 g/ha, 0 to 100 scale
  Plant response rating, Rape: 40
Rape [2]; [9]
  Plant response rating, Rape: 50
Sugar beet; [10]
  Plant response rating, Sugar beet: 60
Sugar beet; [11]
  Plant response rating, Sugar beet: 40
Sugar beet; Rate 250 g/ha, 0 to 100 scale
  Plant response rating, Sugar beet: 60
Black nightshade; [10]
  Plant response rating, Blk nightshade: 50
Black nightshade; [11]
  Plant response rating, Blk nightshade: 85
Black nightshade; Rate 250 g/ha, 0 to 100 scale
  Plant response rating, Blk nightshade: 90
Redroot pigweed [3]; [10]
  Plant response rating, Redroot pigweed: 70
Redroot pigweed [3]; [11]
  Plant response rating, Redroot pigweed: 90
Redroot pigweed [3]; Rate 250 g/ha, 0 to 100 scale
  Plant response rating, Redroot pigweed: 90
lambsquarters; Rate 62 g/ha, 0 to 100 scale
  Plant response rating, Lambsquarters: 10
lambsquarters; Rate 125 g/ha, 0 to 100 scale
  Plant response rating, Lambsquarters: 20
lambsquarters; [9]
  Plant response rating, Lambsquarters: 20
Littleseed canarygrass; [10]
  Plant response rating, LS canarygrass: 60
Littleseed canarygrass; [11]
  Plant response rating, LS canarygrass: 50
Littleseed canarygrass; Rate 250 g/ha, 0 to 100 scale
  Plant response rating, LS canarygrass: 70
Jointed goatgrass [4]; [10]
  Plant response rating, Jointed goatgra: 30
Jointed goatgrass [4]; [11]
  Plant response rating, Jointed goatgra: 40
Jointed goatgrass [4]; Rate 250 g/ha, 0 to 100 scale
  Plant response rating, Jointed goatgra: 60
Scentless chamomile; [10]
  Plant response rating, Scentless chamo: 50
Scentless chamomile; [11]
  Plant response rating, Scentless chamo: 60
Scentless chamomile; Rate 250 g/ha, 0 to 100 scale
  Plant response rating, Scentless chamo: 80
Spring barley; Rate 62 g/ha, 0 to 100 scale
  Plant response rating, Spring Barley: 10
Spring barley; Rate 125 g/ha, 0 to 100 scale
  Plant response rating, Spring Barley: 20
Spring barley; [9]
  Plant response rating, Spring Barley: 25
Wild buckwheat; [10]
  Plant response rating, Wild buckwheat: 60
Wild buckwheat; [11]
  Plant response rating, Wild buckwheat: 100
Wild buckwheat; Rate 250 g/ha, 0 to 100 scale
  Plant response rating, Wild buckwheat: 80
Wild mustard [5]; [10]
  Plant response rating, Wild mustard: 50
Wild mustard [5]; [11]
  Plant response rating, Wild mustard: 90
Wild mustard [5]; Rate 250 g/ha, 0 to 100 scale
  Plant response rating, Wild mustard: 65
kochia; Rate 62 g/ha, 0 to 100 scale
  Plant response rating, Kochia: 20
kochia; Rate 125 g/ha, 0 to 100 scale
  Plant response rating, Kochia: 40
kochia; [9]
  Plant response rating, Kochia: 30
Russian thistle; [10]
  Plant response rating, Russian thistle: 0
Russian thistle; [11]
  Plant response rating, Russian thistle: 0
Russian thistle; Rate 250 g/ha, 0 to 100 scale
  Plant response rating, Russian thistle: 15
Wild mustard [6]; Rate 62 g/ha, 0 to 100 scale
  Plant response rating, Wild mustard: 5
Wild mustard [6]; Rate 125 g/ha, 0 to 100 scale
  Plant response rating, Wild mustard: 10
Wild mustard [6]; [9]
  Plant response rating, Wild mustard: 80
Redroot pigweed [7]; Rate 62 g/ha, 0 to 100 scale
  Plant response rating, Redroot pigweed: 5
Redroot pigweed [7]; Rate 125 g/ha, 0 to 100 scale
  Plant response rating, Redroot pigweed: 20
Redroot pigweed [7]; [9]
  Plant response rating, Redroot pigweed: 30
Rape [8]; [10]
  Plant response rating, Rape: 40
Rape [8]; [11]
  Plant response rating, Rape: 60
Rape [8]; Rate 250 g/ha, 0 to 100 scale
  Plant response rating, Rape: 50
